In assay [1] the test system is HIV-1 (Isolat HTLV III B). The assay can be described thus: MT2/MTT test system (antiviral activity in HIV-1-infected MT2 cells). It counts as cell-based. The note with it: read-out: IC50-Werte MT2. The source says: (§1) Die antivirale Wirksamkeit einiger ausgewählter Substanzen wurde sowohl in vivo als auch in vitro (Hemmung der reversen Transkriptase RT) untersucht. a) MT2/MTT-Testsystem (in vivo) MT2-Zellen werden mit HIV-1 (Isolat HTLV III B) infiziert. Nach 7 Tagen Inkubation erfolgt der MTT-Test, der die Vitalität der Zellen bestimmt. Die Vitalität der Zellen korreliert mit dem Ausmaß der Virusproduktion. In der folgenden Tabelle werden IC50-Werte angegeben, d. h. diejenige Konzentration der Substanzen, die eine 50%-ige Inhibierung bewirken. b) Hemmung der RT (in vitro) In einem nicht radioaktiven Mikrotiterplattentest wird das Ausmaß der Inhibierung der Aktivität der RT bestimmt. Die Menge an eingebauten Nukleotiden in die zu synthetisierende DNA wird photometrisch bestimmt.
In general terms: Formazan colour is commonly taken as a measure of viable cells.

In assay [2] the target is T1, reversen Transkriptase RT (Human immunodeficiency virus type 1 group M subtype B, UniProt P04585).
T1 construct: Hemmung der reversen Transkriptase RT
The assay can be described thus: Inhibition of RT, non-radioactive microtitre plate test. It counts as biochemical. The note with it: inhibition of RT activity; incorporated nucleotides determined photometrically; read-out: IC50-Werte RT (converted).
Text: as §1

The mark [3] stands for this setting: Human immunodeficiency virus 1, 168 h, MT2-Zellen infected with HIV-1 (Isolat HTLV III B), 7 days incubation, MTT test of cell vitality.

For orientation: IC50 means the concentration that gives 50% inhibition.

The structures appear in SMILES notation. ≈ marks a conversion by molar mass, not a printed value. Where two headings read alike, the source gives them in different places.

In the case of `CC(C)CC(C)SC(=N)NC(=S)Nc1ccc(Cl)cc1` (stereo not shown) [Beispiel 1, N-(4-Chlorphenylaminothiocarbonyl)thiocarbamidinsäure 2-(4-methylpentyl)ester], the IC50 in assay [1] (setting [3]) is 0.6 µg/mL (≈ 1.82 µM); in assay [2], 1820 nM.

Take `CC(C)CC(C)SC(=N)NC(=S)Nc1cccc(F)c1` (stereo not shown) [Beispiel 2b, N-(3-Fluorphenylaminothiocarbonyl)thiocarbamidinsäure 2-(4-methylpentyl)ester]: the values for the IC50 in assay [1] (setting [3]) and in assay [2] were 3.3 µg/mL (≈ 10.5 µM) and 3190 nM, respectively.

On to `N=C(NC(=S)Nc1ccc(Cl)cc1)SCc1ccccc1` [Beispiel 2e, N-(4-Chlorphenylaminothiocarbonyl)thiocarbamidinsäure-benzylester], for which the IC50 was below 3 µg/mL in assay [1] (setting [3]) and 7290 nM in assay [2]. Turning to `N=C(NC(=S)Nc1ccc(Cl)cc1)SC1CCCCC1` [Beispiel 2f, N-(4-Chlorphenylaminothiocarbonyl)thiocarbamidinsäure-cyclohexylester], the IC50 in assay [1] (setting [3]) is below 3 µg/mL; in assay [2], 314 nM. As for `N=C(NC(=S)Nc1ccc(Cl)cc1)SCc1cccc(Cl)c1` [Beispiel 2g, N-(4-Chlorphenylaminothiocarbonyl)thiocarbamidinsäure-3-chlorbenzylester], the IC50 is below 3 µg/mL in assay [1] (Human immunodeficiency virus 1, MT2, 168 h) and 891 nM in assay [2]. For the compound `CCCCSC(=N)NC(=S)Nc1ccc(Cl)cc1` [Beispiel 2j, N-(4-Chlorphenylaminothiocarbonyl)thiocarbamidinsäure-butylester], the IC50 is below 3 µg/mL in assay [1] (setting [3]) and 2520 nM in assay [2].

For `N=C(NC(=S)Nc1ccc(Cl)cc1)Sc1ccccc1` [Beispiel 2n, N-(4-Chlorphenylaminothiocarbonyl)thiocarbamidinsäure-phenylester], in assay [2], the IC50 is 2800 nM.

(Values after patent EP0711275B1, “(THIO)CARBIMIDINIC ACID DERIVATIVES AND MEDICAMENTS CONTAINING THE SAME” (BOEHRINGER MANNHEIM GMBH, priority 1993, dated 1995).)
